Measured values from patent publication US9999611B2, “SIRT 1 activator including syringaresinol” (AMOREPACIFIC CORPORATION, priority 2011, dated 2018).

Tests used:
PGC-1α = PGC-1α mRNA expression promoting effect (qRT-PCR); assay type: cell-based, human; conditions: 50 μM, vs DMSO control, FIG. 12
Protocol: Human adipocytes, hepatocytes and myocytes were treated with 50 μM syringaresinol in substantially the same manner as in Test Example 3 and washed with PBS. Then, RNA and cDNA were sequentially extracted therefrom. The mRNA expression of the energy metabolism-related genes PGC-1α and PGC-1β was analyzed by qRT-PCR. A result of comparing the expression of PGC-1α and PGC-1β with a control group treated only with DMSO is shown in FIG. 12 and FIG. 13, respectively.

[1] = tested on: IL-1b, IL-6. iNOS, COX2, MMP9 and CCR2; experiment: Inhibition of expression of inflammation-related genes in LPS-treated human PBMCs; assay type: cell-based; conditions: human PBMCs pretreated with 50 μM, then 10 ng/mL LPS; compared to cells treated only with LPS; FIG. 19
Protocol: After pretreating human PBMCs with 50 μM syringaresinol, inflammatory response was induced by treating with 10 ng/mL LPS, in substantially the same manner as in Test Example 11. The cells treated with each sample were washed with PBS and RNA and cDNA were extracted and synthesized therefrom. Then, the expression pattern of the inflammatory response-related genes IL-1b, IL-6. iNOS, COX2, MMP9 and CCR2 was monitored using the synthesized cDNA and predesigned primers.

gingival fibroblasts = experiment: Cellular activity promoting effect in gingival fibroblasts (MTT assay); assay type: cell-based, human; conditions: cigarette smoke condensate 100 μg/mL, syringaresinol 50 or 100 μg/mL, 2 days, FIG. 3
Protocol: Gingival fibroblasts subcultured for 5-6 times in substantially the same manner as in Test Example 1 were seeded onto a 24-well plate, with 1×10^4 cells per well. After culturing for 1 day, cigarette smoke condensate was added with a concentration of 100 μg/mL in substantially the same manner as in Test Example 1 and the syringaresinol obtained in Example was added after dissolving in DMSO to a concentration of 50 or 100 μg/mL. A control group was treated with DMSO corresponding to 1/1000 of the volume of the culture medium. Also, a group which was treated with neither the cigarette smoke condensate nor the test substance was prepared. After culturing for 2 days and adding 300 μL of 3-(4,5-dimethylthiazol-2-yl)-2,5-diphenyltetrazolium bromide (MTT; Sigma, USA) dissolved in physiological saline per each well, the cells were cultured for 4 hours. After removing the culture medium and dissolving formazan crystals by adding 200 μL of dimethyl sulfoxide (DMSO; Junsei, Japan), absorbance was measured at 540 nm using an ELISA reader (Spectra MAX 250, Molecular Devices Co., USA). Each experiment was repeated 3 times.

SIRT1 = SIRT1 expression promoting effect in human PBMCs (qRT-PCR); assay type: cell-based; conditions: human PBMCs, 20, 50 or 100 μM, 24 hours; FIG. 17
Protocol: The SIRT1 gene expression promoting effect of syringaresinol in human PBMCs was evaluated as follows.
Human PBMCs were purchased from Zen-Bio (Research Triangle Park, N.C., USA) and cultured in a 5% CO2 incubator using a PBMC medium (Zen-Bio) until 80% confluency. Then, the cells were treated for 24 hours with syringaresinol dissolved in DMSO to a concentration of 20, 50 or 100 μM. A negative control group was treated with DMSO corresponding to 1/1000 of the volume of the culture medium. The cells treated with each sample were washed with PBS and RNA was extracted therefrom using the TRIzol reagent (Invitrogen). Then, cDNA was synthesized from the extracted RNA (5 μg) using a reverse transcription system (Fermentas, Glen Burnie, Md., USA). The expression pattern of the SIRT1 and GAPDH genes was monitored by qRT-PCR using the synthesized cDNA and predesigned primers and probes. qRT-PCR reaction and analysis were carried out using the Rotor-Gene 3000 system (Corbett Research, Sydney, Australia).

Human hepatocytes = experiment: Fatty acid oxidation promoting ability (3H2O in medium), hepatocytes; assay type: cell-based; conditions: 50 μM, vs non-treated group, FIG. 11
Protocol: (§1) Human adipocytes, hepatocytes and myocytes were treated with 50 μM syringaresinol in substantially the same manner as in Test Example 3. The cells were washed with PBS and cultured for a day in a medium for fatty acid oxidation analysis. The medium was recovered and the amount of ^3H2O was measured.

[2] = tested on: aged retinal cells (ARPE-19); experiment: Mitochondrial biosynthesis promoting effect in aged retinal cells (mitochondrial DNA relative to nuclear DNA, real-time PCR); assay type: cell-based, human; conditions: vs DMSO, FIG. 15
Protocol: The aging of retinal cells was induced while treating with 50 or 100 μM syringaresinol or with DMSO as a negative control, in substantially the same manner as in Test Example 7. The cells treated with each sample were washed 2 times with cold PBS and genomic DNA (gDNA) was extracted therefrom using the FastPure DNA kit (Tokyo, Japan). For evaluation of mitochondrial biosynthesis, the quantity of the mitochondrial DNA marker cytochrome oxidase subunit II and the nuclear DNA marker cyclophilin A was quantified through real-time PCR using the extracted gDNA and the number of mitochondria was measured by calculating the quantity of mitochondrial DNA relative to the nuclear DNA. PCR reaction and analysis were carried out using the Rotor-Gene 3000 system (Corbett Research, Sydney, Australia).

human PBMCs = experiment: Human PBMC migration and deposition onto 3T3-L1 adipocytes (TNF-induced); assay type: cell-based; conditions: human PBMCs, 20, 50 or 100 μM, 10 ng/mL TNF, differentiated 3T3-L1 adipocytes, 48 hours; FIG. 20
Protocol: After treating human PBMCs with 20, 50 or 100 μM syringaresinol or DMSO in substantially the same manner as in Test Example 11, inflammatory response was induced by treating with 10 ng/mL TNF. After treating differentiated 3T3-L1 adipocytes (Zen-Bio) with the PBMCs, it was investigated whether the PBMCs migrate onto the adipocytes and deposit. 48 hours later, after removing the PBMCs remaining without migrating, the cells were detached from a culture dish using trypsin/EDTA and then counted using a cell counter.

Human myocytes = experiment: Fatty acid oxidation promoting ability (3H2O in medium), myocytes; assay type: cell-based; conditions: 50 μM, vs non-treated group, FIG. 11
Protocol: as §1

[3] = tested on: aged retinal cells (ARPE-19); experiment: Mitochondrial function recovering effect in aged retinal cells: energy (ATP) production; assay type: cell-based, human; conditions: compared to cells treated only with DMSO, FIG. 16
Protocol: The aging of retinal cells was induced while treating with 50 or 100 μM syringaresinol or with DMSO as a negative control, in substantially the same manner as in Test Example 7. For evaluation of mitochondrial function recovering effect, the level of energy (ATP) and reactive oxygen species production in retinal cells was investigated. The energy production was determined by recovering the aged cells after washing with PBS and then with hot water and measuring luminescence using the ATP determination kit (Molecular Probes, Eugene, Oreg., USA) and the Tecan system (Infinite M200, Tecan, Austria). The reactive oxygen species production was measured using a flow cytometer (BD Biosciences, San Jose, Calif., USA) after washing the aged cells with PBS and staining them with the reactive oxygen species detection reagent (H2DCFDA, Invitrogen, Carlsbad, Calif., USA).

SMILES: COc1cc(C2OCC3C(c4cc(OC)c(O)c(OC)c4)OCC23)cc(OC)c1O (stereo not shown) [syringaresinol]
- expression of PGC-1α (PGC-1α; human adipocytes): increased the expression
- expression of PGC-1α (PGC-1α; human hepatocytes): increased the expression
- expression of PGC-1α (PGC-1α; human myocytes): increased the expression
- decreased expression of the inflammatory response-related genes [1]: about 90%
- cellular activity (MTT, absorbance at 540 nm) (gingival fibroblasts): recovered cellular activity, which had been decreased due to smoking, to a level substantially comparable to the normal level
- SIRT1 expression (SIRT1): increased SIRT1 expression in PBMCs in a concentration-dependent manner
- fatty acid oxidation (Human hepatocytes): increased fatty acid oxidation
- increase in mitochondrial biosynthesis (mitochondrial DNA relative to nuclear DNA) ([2]; 50 μM): about 40%
- increase in mitochondrial biosynthesis (mitochondrial DNA relative to nuclear DNA) ([2]; 100 μM): ~60%
- inhibition of migration and deposition of PBMCs onto adipocytes (human PBMCs): about 50%
- fatty acid oxidation (Human myocytes): increased fatty acid oxidation
- increased energy (ATP) production ([3]; 50 μM): about 21%
- increased energy (ATP) production ([3]; 100 μM): ~33%
